For data set [1], the target named is human µ receptor wild‐type (WT) (Homo sapiens, UniProt P35372). Description: cell-based. Format: cell-based.
In data set [2] the test system is rat µ receptor. Particulars: cited from earlier work.
The target in a further data set is human µ receptor N40D (Homo sapiens, UniProt P35372, N40D). Put plainly: cell-based. Format: cell-based.
The target in another data set is human µ receptor A6V (Homo sapiens, UniProt P35372, A6V). Description: cell-based. Format: cell-based.
The subject of the next data set is Somatostatin receptors. Format: cell-based, Mouse. Particulars: 30 µM tapentadol; SRIF 100 nM; AtT20 WT cells.
The next data set has as its target T1, GIRK1/2 channel (Mus musculus, UniProt P48542+P63250).
T1 sequence (P63250 1-501): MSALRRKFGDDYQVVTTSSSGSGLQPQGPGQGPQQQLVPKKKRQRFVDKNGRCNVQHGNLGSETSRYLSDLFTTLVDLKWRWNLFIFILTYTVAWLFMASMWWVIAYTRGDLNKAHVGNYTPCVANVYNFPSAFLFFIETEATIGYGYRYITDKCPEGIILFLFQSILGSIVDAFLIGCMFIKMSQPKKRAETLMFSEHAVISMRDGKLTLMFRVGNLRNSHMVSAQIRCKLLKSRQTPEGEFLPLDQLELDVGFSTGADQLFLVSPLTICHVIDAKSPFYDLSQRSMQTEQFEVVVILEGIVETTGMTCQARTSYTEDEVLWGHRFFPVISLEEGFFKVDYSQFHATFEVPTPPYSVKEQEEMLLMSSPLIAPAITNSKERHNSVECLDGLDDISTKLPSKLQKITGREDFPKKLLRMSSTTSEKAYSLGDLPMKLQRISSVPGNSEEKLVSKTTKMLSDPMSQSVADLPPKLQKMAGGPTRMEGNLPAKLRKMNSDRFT
T1 sequence (P48542 1-425): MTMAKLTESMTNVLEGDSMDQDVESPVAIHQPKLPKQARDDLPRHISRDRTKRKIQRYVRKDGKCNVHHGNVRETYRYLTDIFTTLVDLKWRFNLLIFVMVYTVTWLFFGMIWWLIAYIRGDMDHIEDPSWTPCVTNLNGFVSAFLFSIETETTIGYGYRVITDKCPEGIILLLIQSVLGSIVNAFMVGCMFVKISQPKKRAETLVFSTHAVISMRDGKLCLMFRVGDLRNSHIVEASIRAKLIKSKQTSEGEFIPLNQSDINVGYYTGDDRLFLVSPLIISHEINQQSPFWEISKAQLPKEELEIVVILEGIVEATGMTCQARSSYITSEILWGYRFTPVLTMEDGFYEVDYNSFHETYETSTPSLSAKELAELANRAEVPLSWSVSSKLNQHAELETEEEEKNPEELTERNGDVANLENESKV
Format: cell-based. Particulars: 30 µM tapentadol, AtT20 WT cells.

The test system of data set [3] is rat µ receptor. Particulars: cited from earlier work. This is another data set of the same source.
The subject of data set [4] is noradrenaline transporter. Conditions: read-out: EC50 to inhibit noradrenaline transporter; LC neurons; cited from earlier work.
For another data set, the system named is GIRK channels. Conditions: 100 µM; cells clamped at −60 mV; cited from earlier work.
For data set [5] the following is noted: tapentadol‐related fatality; cited from earlier work.
The test system of a further data set is human µ receptor. Particulars: GTPγS binding; cited from earlier work.
In the next data set the test system is OPRM1 knock‐out mice. Particulars: dose highly effective in wild‐type mouse; cited from earlier work.

Here are results for three compounds from PMC8929351 (Pharmacology Research & Perspectives, 2022).

Entries after “also recorded” stand apart in the source; their conditions may differ.

human µ receptor wild‐type (WT), sequence (P35372 whole entry): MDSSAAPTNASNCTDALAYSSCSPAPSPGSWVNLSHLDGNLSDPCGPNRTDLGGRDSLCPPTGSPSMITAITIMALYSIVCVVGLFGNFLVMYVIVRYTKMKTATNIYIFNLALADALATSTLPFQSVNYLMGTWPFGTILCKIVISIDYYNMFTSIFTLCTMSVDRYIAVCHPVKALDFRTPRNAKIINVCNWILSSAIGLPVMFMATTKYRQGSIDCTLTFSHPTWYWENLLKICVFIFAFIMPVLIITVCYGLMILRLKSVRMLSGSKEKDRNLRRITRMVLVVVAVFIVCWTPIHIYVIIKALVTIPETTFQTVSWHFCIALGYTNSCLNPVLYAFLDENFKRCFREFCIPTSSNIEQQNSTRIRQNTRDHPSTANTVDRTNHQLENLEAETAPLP
human µ receptor N40D, sequence (P35372 whole entry N40D): as the sequence (P35372 whole entry) above, with N40D counted along it
human µ receptor A6V, sequence (P35372 whole entry A6V): as the sequence (P35372 whole entry) above, with A6V counted along it

For `C[C@@H](NC(=O)[C@@H](N)Cc1ccc(O)cc1)C(=O)NCC(=O)N(C)[C@@H](Cc1ccccc1)C(=O)NCCO` [DAMGO, Tyr‐D‐Ala‐Gly‐N‐MePhe‐Gly‐ol acetate], in data set [1], the “effect to activate the GIRK channel in variants compared to WT” value is recorded as “not different”. Besides, the Operational tau in the data set on rat µ receptor [2] is on record as 28.5 ± 1.1.

Regarding `COc1ccc2c3c1O[C@H]1C(=O)CC[C@@]4(O)[C@@H](C2)N(C)CC[C@]314` [Oxycodone], the Operational tau in [1] is 13.9 ± 2; in the data set on rat µ receptor [2], 5.1 ± 0.2.

As to `CC[C@@H](c1cccc(O)c1)[C@@H](C)CN(C)C` [Tapentadol], in data set [1] (30 µM, undepleted conditions), the “response at the highest concentration compared with plateau” value is recorded as “smaller response”. For the same compound, the “Relative tau (intrinsic efficacy relative to DAMGO)” value in [1] (WT, AtT20 cells, operational model, β‐CNA 100 nM 20 min, mean ± SEM) stood at 0.05 ± 0.01; at human µ receptor N40D (N40D, AtT20 cells, operational model, β‐CNA 100 nM 20 min, mean ± SEM), 0.05 ± 0.02; on human µ receptor A6V (A6V, AtT20 cells, operational model, β‐CNA 100 nM 20 min, mean ± SEM), 0.04 ± 0.01. Besides, the Kd in data set [1] (pKA, WT, operational (functional) affinity) was 3.98 µM; on human µ receptor N40D, 3.98 µM; at human µ receptor A6V it was 4.47 µM. For the same compound, the “effect on response of SRIF” value in the data set on Somatostatin receptors is “significant reduction; also recorded: decreased the maximal response”. On GIRK1/2 channel, the “effect on response of ML297” value was “significant reduction; also recorded: decreased the maximal response”. In the data set on rat µ receptor [3] (GIRK currents, rat LC neurons), the intrinsic activity entry is “lower intrinsic activity than morphine and oxycodone”. In addition, the EC50 is 1.8 µM on rat µ receptor [3] (read-out: EC50 to activate µ receptor, LC neurons) and 2.3 µM in data set [4]. The “blockage of GIRK channels” value with GIRK channels is “no blockage of GIRK channels”. Also, the serum concentration in data set [5] is 3.5 to 25 µM. Besides, in the data set with human µ receptor, the in vitro efficacy result was “same efficacy as morphine”. Also, in the data set on OPRM1 knock‐out mice, the analgesic effect result is given as “reduced yet significant analgesia”.
